Experimental data from patent publication US6632621B1, “G protein-coupled receptor-like receptors and modulators thereof” (priority 1999, dated 2003).
Like-named read-outs stand apart in the source and are kept apart here. Where a SMILES comes first, the peptide text is derived from it. Where no end group is shown, it is not given here. [ ]: non-standard residue; d: D form. Tyr(3-I) = N[C@@H](Cc1ccc(O)c(I)c1)C(=O)O; pGlu = O=C1CC[C@@H](C(=O)O)N1

How the values were obtained:
Type in all cases: biochemical, C. elegans
[1] = target: T1, CEGPCR5 (Caenorhabditis elegans, UniProt Q18179); assay: [35S]GTPγS binding assay, CEGPCR5 expressed in CHO cells
T1 sequence (Q18179 1-402): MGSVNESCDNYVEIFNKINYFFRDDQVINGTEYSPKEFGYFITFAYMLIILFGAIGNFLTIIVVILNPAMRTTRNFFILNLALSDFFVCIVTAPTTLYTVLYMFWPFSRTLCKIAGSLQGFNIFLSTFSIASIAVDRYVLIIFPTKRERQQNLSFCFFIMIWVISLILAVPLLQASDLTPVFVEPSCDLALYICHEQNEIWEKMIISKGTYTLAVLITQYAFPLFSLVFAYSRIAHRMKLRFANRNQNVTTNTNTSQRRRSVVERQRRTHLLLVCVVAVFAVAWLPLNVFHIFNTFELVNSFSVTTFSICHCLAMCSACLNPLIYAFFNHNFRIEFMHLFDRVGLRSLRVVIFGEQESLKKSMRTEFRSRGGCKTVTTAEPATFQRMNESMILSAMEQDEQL
Description: (§1) Recombinant pCR3.1 clones encoding invertebrate GPCR-like receptors were transformed into wild-type CHO-K1 cells and functional expression was achieved using a temperature-shift incubation protocol. The CHO-K1 cells were cultured at 37° C. in a humidified atmosphere of 5% CO2 in air in DMEM medium supplemented with 10% heat-inactivated fetal bovine serum (i.e., FBS), 10 μg/ml gentamicin, and 0.1 mM nonessential amino acids to give complete DMEM medium. Additionally, for incubations at temperatures lower than 37° C., the medium was fortified with 10 mM HEPES (pH 7.4). Cells were transfected with recombinant pCR3.1 clones containing GPCR-like receptor DNAs, using LipofectAMINE PLUS™, essentially according to the manufacturer's instructions. […] In separate plastic tubes, PLUS (20 μl/plate; Life Technologies) was added to 0.75 ml/plate of recombinant plasmid DNA in OptiMEM (5 μg/plate; Gibco/BRL—Life Technologies), mixed and incubated at room temperature for 15 minutes. Separately, LipofectAMINE (30 μl/plate) was mixed with 0.75 ml OptiMEM and added to the pre-complexed DNA/PLUS mixture and incubated at room temperature for 15 minutes. The culture medium was then replaced with serum-free transfection medium (DMEM, 5 ml/plate). The DNA-PLUS-LipofectAMINE complex was then added to the plates (1.5 ml/plate) and mixed gently into the medium, followed by a 3 hour incubation at 37° C. in 5% CO2. At this time, the medium was supplemented with complete DMEM medium containing 20% FBS (6.5 ml/plate) and incubation was continued at 37° C. in 5% CO2. After a total of 24 hours at 37° C. in 5% CO2, the medium was replaced with complete DMEM medium fortified with 10 mM HEPES (10 ml/plate) and the cells were moved to an incubator maintained at 28-30° C. in a humidified atmosphere of 5% CO2 in air. The incubation continued for an additional 24 hours, typically at the lower temperature indicated above. A plasmid encoding Green Fluorescent Protein (i.e., GFP, 4 μg/plate) was used for transient GFP expression in CHO-K1 cells to estimate the transfection yields under the same conditions as used for GPCR-like receptor polynucleotides.
(§2) To assess expression, membranes were prepared from transfected CHO-K1 cells. Transfected cells were washed once with ice-cold Dulbecco's phosphate-buffered saline (i.e., PBS), 5 ml per 10 cm plate, and the cells were scraped into 5 ml of the same buffer. Cell suspensions from multiple plates were combined and centrifuged at 500×g for 10 minutes at 4° C. The cell pellet was reconstituted in ice-cold TEE (25 mM Tris, pH 7.4, 5 mM EGTA, 5 mM EDTA). Convenient aliquots were snap-frozen in liquid nitrogen and stored at −70° C. After thawing, the cells were homogenized and centrifuged at 500×g for 5 minutes at 4° C. to pellet nuclei and unbroken cells. Tile supernatant was centrifuged at 47,000×g for 30 minutes at 4° C. The membrane pellet was washed once with TEE, resuspended in 20 mM HEPES, pH 7.4, 100 mM NaCl, 10 mM MgCl2, 1 mM EDTA (assay buffer), distributed into aliquots of 0.5-1.0 ml, and frozen in liquid nitrogen. Membrane aliquots were stored at −70° C. Membrane protein concentration was determined using the BCA Protein Assay Reagent from Pierce (Rockford, Ill.), with bovine serum albumin (i.e., BSA) as a standard.
(§3) Aliquots of cell membranes prepared as described above and stored at −70° C. were thawed, homogenized, and diluted into buffer containing 20 mM HEPES, pH 7.4, 10 mM MgCl2, 1 mM EDTA, and 100 mM NaCl at a concentration of 10-50 μg/ml. Reaction mixtures were prepared in 96-well polypropylene plate, Nunc. Twenty microliters of a 10× putative modulator compound (including but not limited to potential peptide ligands) solution or a water control (20 μl), 18.2 µM GDP (0.11 ml, 10 μM final concentration), and a membrane preparation were mixed and placed on ice. The modulator/ligand-GDP-membrane mixtures were incubated for 20 minutes at room temperature on a shaking platform and then placed on ice.

[2] = target: T2, CEGPCR16 receptor (Caenorhabditis elegans, UniProt Q9XXU4); assay: [35S]GTPγS binding assay, CEGPCR16 expressed in CHO cells; conditions: Table 10; one range for the group of peptides; read-out: EC50 range
T2 sequence (Q9XXU4 1-365): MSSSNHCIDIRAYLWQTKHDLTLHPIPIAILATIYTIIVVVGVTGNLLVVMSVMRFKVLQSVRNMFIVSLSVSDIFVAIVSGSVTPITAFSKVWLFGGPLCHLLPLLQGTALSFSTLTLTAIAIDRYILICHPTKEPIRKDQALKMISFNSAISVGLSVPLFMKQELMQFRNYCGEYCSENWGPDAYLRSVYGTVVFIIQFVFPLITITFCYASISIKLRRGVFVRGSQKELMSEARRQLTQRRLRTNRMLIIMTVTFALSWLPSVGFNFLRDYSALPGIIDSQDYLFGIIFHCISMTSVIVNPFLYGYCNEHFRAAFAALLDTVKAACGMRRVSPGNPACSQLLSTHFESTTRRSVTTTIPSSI
Description: as §1, §2, §3

[3] = target: T3, CEGPCR12h receptor (Caenorhabditis elegans, UniProt Q20275); assay: [35S]GTPγS binding assay, CEGPCR12h expressed in CHO cells; conditions: for activity at single concentration: peptides tested at 5 μM
T3 sequence (Q20275 1-402): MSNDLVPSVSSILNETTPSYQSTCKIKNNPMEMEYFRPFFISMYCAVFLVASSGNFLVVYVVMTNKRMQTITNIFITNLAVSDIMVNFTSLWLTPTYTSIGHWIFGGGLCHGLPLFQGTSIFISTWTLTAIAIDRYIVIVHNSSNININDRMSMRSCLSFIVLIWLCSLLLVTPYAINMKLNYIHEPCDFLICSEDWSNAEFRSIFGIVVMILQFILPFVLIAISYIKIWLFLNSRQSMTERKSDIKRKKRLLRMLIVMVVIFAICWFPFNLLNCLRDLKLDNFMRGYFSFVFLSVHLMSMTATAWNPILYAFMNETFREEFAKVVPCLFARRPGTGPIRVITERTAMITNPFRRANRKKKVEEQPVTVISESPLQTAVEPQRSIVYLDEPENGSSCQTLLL
Description: as §1, §2, §3

[4] = EC50 range, Table 9, one range for the group of peptides
[5] = EC50 range, Table 11, one range for the group, results apply to all CEGPCR12 isoforms

AGAKFIRF-NH2 [AGAKFIRF-NH2]
EC50 [1]: 1000 to 8000 nM

GMPGVLRF-NH2 [GMPGVLRF-NH2]
EC50 [2]: 60 to 300 nM | activity at single concentration ([3]; Table 11): active at | EC50 [1]: 1000 to 8000 nM

FDDYGHLRF-NH2 [FDDYGHLRF-NH2]
EC50 ([3]; Table 11, one range for the group, results apply to all CEGPCR12 isoforms, read-out: EC50 range): 300 to 500 nM

ARGPQLRLRF-NH2 [ARGPQLRLRF-NH2]
EC50 [1, 4]: 1000 to 8000 nM

SAEPFGTMRF-NH2 [SAEPFGTMRF-NH2]
EC50 [2]: 60 to 300 nM

AVPGVLRF-NH2 [AVPGVLRF-NH2]
EC50 [2]: 700 to 4600 nM | activity at single concentration ([3]; Table 11): active at

CC(C)C[C@H](NC(=O)[C@H](Cc1ccccc1)NC(=O)[C@@H](NC(=O)[C@H](Cc1c[nH]cn1)NC(=O)[C@H](CC(=O)O)NC(=O)[C@@H](NC(=O)[C@H](CC(=O)O)NC(=O)[C@@H]1CCCN1C(=O)[C@@H](N)Cc1ccc(O)c(I)c1)C(C)C)C(C)C)C(=O)N[C@@H](CCCNC(=N)N)C(=O)N[C@@H](Cc1ccccc1)C(N)=O [[I]Y^0PDVDHVFLRF-NH2] (H-[Tyr(3-I)]PDVDHVFLRF-NH2)
EC50 ([3]; EC50): 478 nM | EC50 [3, 5]: 300 to 500 nM

DVPGVLRF-NH2 [DVPGVLRF-NH2]
EC50 [2]: 700 to 4600 nM | activity at single concentration ([3]; Table 11): active at

CC(C)C[C@H](NC(=O)[C@H](Cc1ccccc1)NC(=O)[C@@H](NC(=O)[C@H](Cc1c[nH]cn1)NC(=O)[C@H](CC(=O)O)NC(=O)[C@@H](NC(=O)[C@H](CC(=O)O)NC(=O)[C@@H]1CCC(=O)N1)C(C)C)C(C)C)C(=O)N[C@@H](CCCNC(=N)N)C(=O)N[C@@H](Cc1ccccc1)C(N)=O [pQDVDHVFLRF-NH2] ([pGlu]DVDHVFLRF-NH2)
EC50 [3, 5]: 1500 to 3000 nM

SPLGTMRF-NH2 [SPLGTMRF-NH2]
EC50 [2]: 60 to 300 nM

SDRNFLRF-NH2 [SDRNFLRF-NH2]
EC50 [1, 4]: 80 to 800 nM

TDVDHVFLRF-NH2 [TDVDHVFLRF-NH2]
EC50 [3, 5]: 1500 to 3000 nM

EAEEPLGTMRF-NH2 [EAEEPLGTMRF-NH2]
EC50 [2]: 60 to 300 nM

SEVPGVLRF-NH2 [SEVPGVLRF-NH2]
EC50 [2]: 700 to 4600 nM

KPNFLRF-NH2 [KPNFLRF-NH2]
EC50 [1]: 1000 to 8000 nM

AGPRFIRF-NH2 [AGPRFIRF-NH2]
EC50 [1]: 1000 to 8000 nM

TNRNFLRF-NH2 [TNRNFLRF-NH2]
EC50 [1, 4]: 80 to 800 nM

EIVFHQISPIFFRF-NH2 [EIVFHQISPIFFRF-NH2]
EC50 [1]: 1000 to 8000 nM
